Laboratory results taken from US20240041042A1, “1-(PYRIDYL)-5-AZINYLPYRAZOLE DERIVATIVES, AND THEIR USE FOR CONTROL OF UNDESIRED PLANT GROWTH” (Bayer Aktiengesellschaft, priority 2020, published 2024).

What was measured:
Assay type in all cases: in vivo
[1] = test system: Alopecurus myosuroides (ALOMY); experiment: Pre-emergence herbicidal action against ALOMY; conditions: scored visually after about 3 weeks, 100% = plants have died
How it was run: (§1)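 Application rates ran to 320 g/ha or lower, with several dosages tested on the same weeds. The compound, as wettable powder or emulsion concentrate, is sprayed pre-emergence onto soil over sown seeds; greenhouse growth follows, and effect is rated visually after roughly 3 weeks.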

Lolium rigidum (LOLRI) [2] = experiment: Post-emergence herbicidal action against LOLRI
How it was run: (§2)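 Doses of 320 g/ha or lower, suffixes a, b and c marking different dosages, were applied post-emergence at the one-leaf stage in 600 l/ha water with 0.5% additive. Damage was assessed visually after about 3 weeks in the greenhouse.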

[3] = test system: Abutilon theophrasti (ABUTH); experiment: Pre-emergence herbicidal action against ABUTH; conditions: Dosage column 320 g/ha (title prints 3200 g/ha); scored visually after about 3 weeks; 100% = plants have died
How it was run: as §1

[4] = test system: Echinochloa crus-galli (ECHCG); experiment: Pre-emergence herbicidal action against ECHCG
How it was run: as §1

Lolium rigidum (LOLRI) [5] = experiment: Pre-emergence herbicidal action against LOLRI
How it was run: as §1

[6] = test system: Verconica persica (VERPE); experiment: Pre-emergence herbicidal action against VERPE; conditions: dosage 320 g/ha
How it was run: as §1

Viola tricolor (VIOTR) [7] = experiment: Pre-emergence herbicidal action against VIOTR
How it was run: as §1

Setaria viridis (SETVI) [8] = experiment: Pre-emergence herbicidal action against SETVI
How it was run: as §1

[9] = test system: Pharbitis purpurea (PHBPU); experiment: Post-emergence herbicidal action against PHBPU
How it was run: as §2

Oryza sativa (ORYSA) = conditions: crop plant compatibility, 80 g/ha, effect in comparison to untreated controls
How it was run: (§3)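 Visual rating (% effect vs. untreated plants; 100% = plant death) made about 3 weeks after treatment. Plants had been sprayed at one-leaf stage, 2–3 weeks post-sowing, with aqueous WP/EC preparations containing 0.5% additive, 600 l/ha water volume; a, b, c mark dose levels.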

[10] = test system: Amaranthus retroflexus (AMARE); experiment: Pre-emergence herbicidal action against AMARE; conditions: visual scoring after about 3 weeks vs untreated controls
How it was run: as §1

[11] = test system: Amaranthus retroflexus (AMARE); experiment: Post-emergence herbicidal action against AMARE
How it was run: as §2

Setaria viridis (SETVI) [12] = experiment: Post-emergence herbicidal action against SETVI
How it was run: as §2

Avena fatua (AVEFA) [13] = experiment: Post-emergence herbicidal action against AVEFA; conditions: 320 g/ha, visual rating about 3 weeks after treatment
How it was run: as §2

[14] = test system: Polygonum convolvulus (POLCO); experiment: Pre-emergence herbicidal action against POLCO
How it was run: as §1

[15] = test system: Matricaria inodora (MATIN); experiment: Pre-emergence herbicidal action against MATIN
How it was run: as §1

[16] = test system: Echinochloa crus-galli (ECHCG); experiment: Post-emergence herbicidal action against ECHCG
How it was run: as §2

[17] = test system: Alopecurus myosuroides (ALOMY); experiment: Post-emergence herbicidal action against ALOMY; conditions: visual rating about 3 weeks after treatment vs untreated controls (100% = plants have died, 0% = like control plants)
How it was run: as §2

Viola tricolor (VIOTR) [18] = experiment: Post-emergence herbicidal action against VIOTR
How it was run: as §2

[19] = test system: Digitaria sanguinalis (DIGSA); experiment: Pre-emergence herbicidal action against DIGSA
How it was run: as §1

[20] = test system: Pharbitis purpurea (PHBPU); experiment: Pre-emergence herbicidal action against PHBPU
How it was run: as §1

[21] = test system: Digitaria sanguinalis (DIGSA); experiment: Post-emergence herbicidal action against DIGSA; conditions: 320 g/ha, visual rating about 3 weeks after treatment
How it was run: as §2

[22] = test system: Polygonum convolvulus (POLCO); experiment: Post-emergence herbicidal action against POLCO
How it was run: as §2

Zea mays (ZEAMX) [23] = conditions: crop plant compatibility, 80 g/ha, effect vs untreated controls
How it was run: as §3

Zea mays (ZEAMX) [24] = conditions: pre-emergence, 80 g/ha, crop plant compatibility, in comparison to untreated controls
How it was run: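 Crop injury rated visually in percent against untreated plants roughly 3 weeks after treatment (0% no effect, 100% plants dead). Compounds, as WP or EC with 0.5% additive in 600 l/ha water, were applied to the covering soil right after sowing; greenhouse growth. Suffixes a, b, c denote different dosages.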

Avena fatua (AVEFA) [25] = experiment: Pre-emergence herbicidal action against AVEFA; conditions: 320 g/ha, visual scoring after about 3 weeks vs untreated controls
How it was run: as §1

[26] = test system: Verconica persica (VERPE); experiment: Post-emergence herbicidal action against VERPE
How it was run: as §2

[27] = test system: Abutilon theophrasti (ABUTH); experiment: Post-emergence herbicidal action against ABUTH; conditions: visual rating about 3 weeks after treatment vs untreated controls (100% = plants have died, 0% = like control plants)
How it was run: as §2

[28] = 80 g/ha, visual rating about 3 weeks after treatment vs untreated controls (100% = plants have died, 0% = like control plants)
[29] = 320 g/ha, visual rating about 3 weeks after treatment

Post-emergence action against ORYSA in % (Oryza sativa (ORYSA)) | Structure (SMILES) | Pre-emergence action against ALOMY ([1]; 320 g/ha) | Post-emergence action against LOLRI in % (Lolium rigidum (LOLRI) [2]; dosage 320 g/ha) | Pre-emergence action against ABUTH [3] | Pre-emergence action against ECHCG in % ([4]; dosage 80 g/ha) | Pre-emergence action against ECHCG in % ([4]; dosage 320 g/ha) | Pre-emergence action against LOLRI in % (Lolium rigidum (LOLRI) [5]; dosage 320 g/ha) | Pre-emergence action against VERPE in % [6] | Pre-emergence action against VIOTR in % (Viola tricolor (VIOTR) [7]; 320 g/ha, Viola tricolor) | Pre-emergence action against VIOTR in % (Viola tricolor (VIOTR) [7]; dosage 80 g/ha) | Pre-emergence action against SETVI in % (Setaria viridis (SETVI) [8]; dosage 320 g/ha) | Post-emergence action against PHBPU in % ([9]; dosage 80 g/ha) | Post-emergence action against PHBPU in % ([9]; dosage 320 g/ha) | Pre-emergence action against AMARE in % ([10]; 80 g/ha) | Pre-emergence action against AMARE in % ([10]; 320 g/ha) | Post-emergence action against AMARE in % [11, 28] | Post-emergence action against AMARE in % [11, 29] | Post-emergence action against SETVI in % (Setaria viridis (SETVI) [12]; dosage 320 g/ha) | Post-emergence action against AVEFA in % (Avena fatua (AVEFA) [13]) | Pre-emergence action against POLCO in % ([14]; dosage 80 g/ha) | other results
20% | COC(=O)C(C)COC(=O)COc1nn(-c2ccccn2)c(-c2cncc(F)c2)c1Cl (stereo not drawn) [Example I-221] | 90% | 90% | 80% | 90% | 100% | 100% | 90% | 90% | 90% | 100% | 90% | 100% | 80% | 90% | 80% | 90% | 90% | 80% | 80% | Post-emergence action against LOLRI in % (Lolium rigidum (LOLRI) [2]; dosage 80 g/ha): 80%; Pre-emergence action against LOLRI in % (Lolium rigidum (LOLRI) [5]; dosage 80 g/ha): 80%; Pre-emergence action against SETVI in % (Setaria viridis (SETVI) [8]; dosage 80 g/ha): 90%; Post-emergence action against SETVI in % (Setaria viridis (SETVI) [12]; dosage 80 g/ha): 90%; Pre-emergence action against POLCO in % ([14]; dosage 320 g/ha): 90%; Pre-emergence action against MATIN in % ([15]; dosage 80 g/ha): 90%; Pre-emergence action against MATIN in % ([15]; dosage 320 g/ha): 90%; Post-emergence action against ECHCG in % ([16]; dosage 80 g/ha): 80%; Post-emergence action against ECHCG in % ([16]; dosage 320 g/ha): 80%; Post-emergence action against ALOMY in % ([17]; 80 g/ha): 80%; Post-emergence action against ALOMY in % ([17]; 320 g/ha): 80%; Post-emergence action against VIOTR in % (Viola tricolor (VIOTR) [18]; 80 g/ha): 80%; Post-emergence action against VIOTR in % (Viola tricolor (VIOTR) [18]; 320 g/ha): 80%; Pre-emergence action against DIGSA in % ([19]; 80 g/ha, visual scoring after about 3 weeks vs untreated controls): 90%; Pre-emergence action against DIGSA in % ([19]; dosage 320 g/ha): 100%; Pre-emergence action against PHBPU in % ([20]; dosage 80 g/ha): 90%; Pre-emergence action against PHBPU in % ([20]; dosage 320 g/ha): 90%; Post-emergence action against DIGSA in % [21]: 80%
20% | CCOC(=O)COc1nn(-c2nc(F)ccc2F)c(-c2ccc(F)nc2)c1Cl [Example I-315] | 100% | 90% | 80% | 90% | 100% | 100% | 100% | 100% | 90% | 100% | 80% | 80% | 90% | 90% | 80% | 80% | 80% | 80% | 80% | Pre-emergence action against ALOMY ([1]; 80 g/ha): 100%; Post-emergence action against POLCO in % ([22]; dosage 80 g/ha): 80%; Post-emergence action against POLCO in % ([22]; dosage 320 g/ha): 80%; Post-emergence action against ZEAMX in % (Zea mays (ZEAMX) [23]): 20%; Pre-emergence action against ZEAMX in % (Zea mays (ZEAMX) [24]): 10%; Pre-emergence action against AVEFA in % (Avena fatua (AVEFA) [25]): 90%; Pre-emergence action against POLCO in % ([14]; dosage 320 g/ha): 90%; Post-emergence action against VERPE in % ([26]; 320 g/ha, VERPE): 90%; Post-emergence action against VERPE in % ([26]; dosage 80 g/ha): 80%; Pre-emergence action against MATIN in % ([15]; dosage 80 g/ha): 80%; Pre-emergence action against MATIN in % ([15]; dosage 320 g/ha): 90%; Post-emergence action against ECHCG in % ([16]; dosage 80 g/ha): 90%; Post-emergence action against ECHCG in % ([16]; dosage 320 g/ha): 100%; Post-emergence action against ALOMY in % ([17]; 80 g/ha): 80%; Post-emergence action against ALOMY in % ([17]; 320 g/ha): 90%; Post-emergence action against VIOTR in % (Viola tricolor (VIOTR) [18]; 320 g/ha): 80%; Pre-emergence action against PHBPU in % ([20]; dosage 80 g/ha): 90%; Pre-emergence action against PHBPU in % ([20]; dosage 320 g/ha): 90%; Post-emergence action against ABUTH in % ([27]; 80 g/ha): 80%; Post-emergence action against ABUTH in % ([27]; 320 g/ha): 80%
